According to ChEMBL document CHEMBL1671791, “Electron paramagnetic resonance (EPR) study of spin-labeled camptothecin derivatives: a different look of the ternary complex” (J Med Chem, 2011):
Activity calls are given as the source filed them. The calls are words filed in the database; no cut-off is given here.

What was measured:
[1] = target: T1, DNA topoisomerase 1 (Homo sapiens) (UniProt P11387); assay: Reversible inhibition of human recombinant DNA topoisomerase 1-mediated DNA cleavage at 0.1 to 100 uM after 20 mins
T1 sequence (whole entry): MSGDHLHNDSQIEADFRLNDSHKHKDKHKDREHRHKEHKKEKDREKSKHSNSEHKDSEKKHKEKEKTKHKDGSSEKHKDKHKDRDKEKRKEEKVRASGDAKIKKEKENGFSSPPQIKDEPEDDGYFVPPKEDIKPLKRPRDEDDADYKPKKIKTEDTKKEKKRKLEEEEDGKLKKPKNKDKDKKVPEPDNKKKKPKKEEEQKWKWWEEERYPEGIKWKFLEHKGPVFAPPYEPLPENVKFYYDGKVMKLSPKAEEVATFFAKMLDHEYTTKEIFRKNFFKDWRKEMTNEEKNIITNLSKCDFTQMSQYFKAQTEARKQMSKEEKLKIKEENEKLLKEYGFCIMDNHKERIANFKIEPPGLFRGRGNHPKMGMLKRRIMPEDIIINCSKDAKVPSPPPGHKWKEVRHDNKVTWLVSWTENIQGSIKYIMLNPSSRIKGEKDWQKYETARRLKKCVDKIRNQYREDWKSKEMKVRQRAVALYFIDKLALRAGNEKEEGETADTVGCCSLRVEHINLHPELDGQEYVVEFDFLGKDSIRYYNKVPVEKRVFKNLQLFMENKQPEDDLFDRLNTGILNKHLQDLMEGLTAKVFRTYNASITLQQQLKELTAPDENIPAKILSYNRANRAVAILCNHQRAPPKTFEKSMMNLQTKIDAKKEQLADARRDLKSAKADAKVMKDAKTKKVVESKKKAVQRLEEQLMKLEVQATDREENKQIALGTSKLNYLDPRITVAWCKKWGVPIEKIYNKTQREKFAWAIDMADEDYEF

[2] = target: T1, DNA topoisomerase 1 (Homo sapiens); assay: Inhibition of human recombinant DNA topoisomerase 1-mediated DNA cleavage at 0.1 to 100 uM after 20 mins
[3] = target: T1, DNA topoisomerase 1 (Homo sapiens); assay: Binding affinity to human recombinant DNA topoisomerase 1 at 20 uM by electron paramagnetic resonance analysis

| SMILES | inhibition [1] | inhibition [2] | Activity [3] |
| --- | --- | --- | --- |
| CC[C@@]1(O)C(=O)OCc2c1cc1n(c2=O)Cc2c-1nc1ccccc1c2/C=N/C1CC(C)(C)N([O])C(C)(C)C1 | Active | Active | Active |
| CC[C@@]1(O)C(=O)OCc2c1cc1n(c2=O)Cc2c-1nc1ccccc1c2C(=O)NC1CC(C)(C)N([O])C(C)(C)C1 |  | Active |  |
